ChEMBL document CHEMBL3885861, “Open TG-GATES”

Species: Rattus norvegicus
Assay: Open TG-GATES - Regimen: Daily Repeat
Type: toxicity, organism-based, Sprague-Dawley
Set-up: regimen Daily Repeat, gender Male, age 6 weeks
Details: in vivo, po, route gavage; for APTT / Bas / Eos / Fbg / Hb / Ht / Lym / MCH / MCHC / MCV / Mono / Neu / PT / Plat / RBC / Ret / WBC: tissue Blood; for KIDNEY_L / KIDNEY_R / KIDNEY_TOTAL: tissue Kidney; for LIVER: tissue Liver; for A/G / ALP / ALT / AST / BUN / CRE / Ca / Cl / DBIL / GLC / IP / K / LDH / Na / PL / RALB / TBIL / TC / TG / TP / gamma-GTP: tissue Plasma
[1] = 100 mg/kg, 72 h, dose level Middle, time 3 day
[2] = 100 mg/kg, […], dose level Middle, time 7 day
[3] = 100 mg/kg, […], dose level Middle, time 14 day
[4] = 100 mg/kg, […], dose level Middle, time 28 day
[5] = 300 mg/kg, 72 h, dose level High, time 3 day
[6] = 300 mg/kg, […], dose level High, time 7 day
[7] = 300 mg/kg, […], dose level High, time 14 day
[8] = 300 mg/kg, […], dose level High, time 28 day

C[C@]12CCC(=O)C=C1CC[C@@H]1[C@@H]2CC[C@@]2(C)[C@H]1CC[C@]2(C)O [METHYLTESTOSTERONE]
TERMINAL_BW [1]: 237.7 g
APTT [1]: 15.9 s
Bas [1]: 0%
Eos [1]: 1%
Fbg [1]: 325.4 mg/dL
Hb [1]: 13.7 g/dL
Ht [1]: 40.1%
Lym [1]: 73.6%
MCH [1]: 21.9 pg
MCHC [1]: 34%
MCV [1]: 64.5 fL
Mono [1]: 2.4%
Neu [1]: 22.6%
PT [1]: 13 s
Plat [1]: 107 x10_4/uL
RBC [1]: 623.4 x10_4/ul
Ret [1]: 7%
WBC [1]: 71.4 x10_2/uL
KIDNEY_L [1]: 1.1 g
KIDNEY_R [1]: 1 g
KIDNEY_TOTAL [1]: 2.1 g
LIVER [1]: 11.9 g
A/G [1]: 0.9
ALP [1]: 1787 IU/L
ALT [1]: 41.8 IU/L
AST [1]: 65.2 IU/L
BUN [1]: 14.6 mg/dL
CRE [1]: 0.2 mg/dL
Ca [1]: 11.1 mg/dL
Cl [1]: 107.2 meq/L
DBIL [1]: 0.02 mg/dL
GLC [1]: 180 mg/dL
IP [1]: 8.2 mg/dL
K [1]: 4.1 meq/L
LDH [1]: 77.4 IU/L
Na [1]: 143.4 meq/L
PL [1]: 135 mg/dL
RALB [1]: 2.8 g/dL
TBIL [1]: 0.026 mg/dL
TC [1]: 55 mg/dL
TG [1]: 155.2 mg/dL
TP [1]: 6 g/dL
gamma-GTP [1]: 1 IU/L
TERMINAL_BW [2]: 271.1 g
TERMINAL_BW [3]: 314.6 g
TERMINAL_BW [4]: 402.8 g
APTT [2]: 15.7 s
Bas [2]: 0%
Eos [2]: 1%
Fbg [2]: 324.2 mg/dL
Hb [2]: 13.9 g/dL
Ht [2]: 40.8%
Lym [2]: 79%
MCH [2]: 21 pg
MCHC [2]: 34.1%
MCV [2]: 61.4 fL
Mono [2]: 2.6%
Neu [2]: 16.8%
PT [2]: 13.4 s
Plat [2]: 116 x10_4/uL
RBC [2]: 663.8 x10_4/ul
Ret [2]: 5.3%
WBC [2]: 72.5 x10_2/uL
APTT [3]: 19.7 s
Bas [3]: 0.2%
Eos [3]: 0.6%
Fbg [3]: 304 mg/dL
Hb [3]: 14.3 g/dL
Ht [3]: 41%
Lym [3]: 78.2%
MCH [3]: 20.4 pg
MCHC [3]: 34.9%
MCV [3]: 58.5 fL
Mono [3]: 3.2%
Neu [3]: 17.2%
PT [3]: 13.5 s
Plat [3]: 113.1 x10_4/uL
RBC [3]: 701.4 x10_4/ul
Ret [3]: 3.6%
WBC [3]: 101.8 x10_2/uL
APTT [4]: 17.5 s
Bas [4]: 0%
Eos [4]: 1.2%
Fbg [4]: 337 mg/dL
Hb [4]: 15.6 g/dL
Ht [4]: 43.7%
Lym [4]: 77%
MCH [4]: 19.9 pg
MCHC [4]: 35.6%
MCV [4]: 55.8 fL
Mono [4]: 2.6%
Neu [4]: 18.8%
PT [4]: 13.6 s
Plat [4]: 99.5 x10_4/uL
RBC [4]: 783.4 x10_4/ul
Ret [4]: 3%
WBC [4]: 101.5 x10_2/uL
KIDNEY_L [2]: 1.1 g
KIDNEY_R [2]: 1.2 g
KIDNEY_TOTAL [2]: 2.3 g
KIDNEY_L [3]: 1.3 g
KIDNEY_R [3]: 1.3 g
KIDNEY_TOTAL [3]: 2.6 g
KIDNEY_L [4]: 1.6 g
KIDNEY_R [4]: 1.5 g
KIDNEY_TOTAL [4]: 3.2 g
LIVER [2]: 13.1 g
LIVER [3]: 15 g
LIVER [4]: 17.8 g
A/G [2]: 0.9
ALP [2]: 2042.4 IU/L
ALT [2]: 46.8 IU/L
AST [2]: 71.6 IU/L
BUN [2]: 16.6 mg/dL
CRE [2]: 0.2 mg/dL
Ca [2]: 11 mg/dL
Cl [2]: 105.4 meq/L
DBIL [2]: 0.028 mg/dL
GLC [2]: 194.8 mg/dL
IP [2]: 8 mg/dL
K [2]: 4 meq/L
LDH [2]: 100 IU/L
Na [2]: 143 meq/L
PL [2]: 133.6 mg/dL
RALB [2]: 2.7 g/dL
TBIL [2]: 0.028 mg/dL
TC [2]: 45.8 mg/dL
TG [2]: 238.4 mg/dL
TP [2]: 5.9 g/dL
gamma-GTP [2]: 1.2 IU/L
A/G [3]: 0.8
ALP [3]: 1318.6 IU/L
ALT [3]: 64.2 IU/L
AST [3]: 76.2 IU/L
BUN [3]: 15 mg/dL
CRE [3]: 0.2 mg/dL
Ca [3]: 10.6 mg/dL
Cl [3]: 105.2 meq/L
DBIL [3]: 0.018 mg/dL
GLC [3]: 198.8 mg/dL
IP [3]: 7.9 mg/dL
K [3]: 4.1 meq/L
LDH [3]: 118.2 IU/L
Na [3]: 141.6 meq/L
PL [3]: 137.8 mg/dL
RALB [3]: 2.8 g/dL
TBIL [3]: 0.026 mg/dL
TC [3]: 52.8 mg/dL
TG [3]: 157 mg/dL
TP [3]: 6.1 g/dL
gamma-GTP [3]: 1.2 IU/L
A/G [4]: 0.8
ALP [4]: 1264.2 IU/L
ALT [4]: 43 IU/L
AST [4]: 59.8 IU/L
BUN [4]: 13.8 mg/dL
CRE [4]: 0.2 mg/dL
Ca [4]: 11.1 mg/dL
Cl [4]: 103 meq/L
DBIL [4]: 0.028 mg/dL
GLC [4]: 189.2 mg/dL
IP [4]: 6.4 mg/dL
K [4]: 3.7 meq/L
LDH [4]: 99.4 IU/L
Na [4]: 143 meq/L
PL [4]: 141 mg/dL
RALB [4]: 2.8 g/dL
TBIL [4]: 0.028 mg/dL
TC [4]: 41.2 mg/dL
TG [4]: 321.6 mg/dL
TP [4]: 6.4 g/dL
gamma-GTP [4]: 1 IU/L
TERMINAL_BW [5]: 233.2 g
APTT [5]: 15.7 s
Bas [5]: 0%
Eos [5]: 1%
Fbg [5]: 295.4 mg/dL
Hb [5]: 13.8 g/dL
Ht [5]: 39.9%
Lym [5]: 74.8%
MCH [5]: 21.8 pg
MCHC [5]: 34.6%
MCV [5]: 63.2 fL
Mono [5]: 2.8%
Neu [5]: 21%
PT [5]: 13.4 s
Plat [5]: 115.4 x10_4/uL
RBC [5]: 630.6 x10_4/ul
Ret [5]: 6.1%
WBC [5]: 71.4 x10_2/uL
KIDNEY_L [5]: 1.1 g
KIDNEY_R [5]: 1.1 g
KIDNEY_TOTAL [5]: 2.2 g
LIVER [5]: 12.3 g
A/G [5]: 0.9
ALP [5]: 1988.4 IU/L
ALT [5]: 52.4 IU/L
AST [5]: 72 IU/L
BUN [5]: 14.4 mg/dL
CRE [5]: 0.2 mg/dL
Ca [5]: 11 mg/dL
Cl [5]: 106.2 meq/L
DBIL [5]: 0.028 mg/dL
GLC [5]: 179 mg/dL
IP [5]: 8.4 mg/dL
K [5]: 4.2 meq/L
LDH [5]: 129.6 IU/L
Na [5]: 143.2 meq/L
PL [5]: 110.4 mg/dL
RALB [5]: 2.8 g/dL
TBIL [5]: 0.024 mg/dL
TC [5]: 37.8 mg/dL
TG [5]: 189 mg/dL
TP [5]: 5.8 g/dL
gamma-GTP [5]: 1.2 IU/L
TERMINAL_BW [6]: 255 g
TERMINAL_BW [7]: 299.6 g
TERMINAL_BW [8]: 358.4 g
APTT [6]: 19.5 s
Bas [6]: 0%
Eos [6]: 0.2%
Fbg [6]: 345.8 mg/dL
Hb [6]: 14 g/dL
Ht [6]: 40.4%
Lym [6]: 80%
MCH [6]: 21.6 pg
MCHC [6]: 34.6%
MCV [6]: 62.2 fL
Mono [6]: 3.2%
Neu [6]: 15.4%
PT [6]: 13.3 s
Plat [6]: 121 x10_4/uL
RBC [6]: 650.2 x10_4/ul
Ret [6]: 5.3%
WBC [6]: 65.9 x10_2/uL
APTT [7]: 22.8 s
Bas [7]: 0%
Eos [7]: 0%
Fbg [7]: 327.8 mg/dL
Hb [7]: 15.3 g/dL
Ht [7]: 43.7%
Lym [7]: 70.4%
MCH [7]: 20.5 pg
MCHC [7]: 34.9%
MCV [7]: 58.8 fL
Mono [7]: 3.4%
Neu [7]: 25.2%
PT [7]: 13.5 s
Plat [7]: 118.5 x10_4/uL
RBC [7]: 744.4 x10_4/ul
Ret [7]: 3.2%
WBC [7]: 93.6 x10_2/uL
APTT [8]: 19.9 s
Bas [8]: 0%
Eos [8]: 1%
Fbg [8]: 325.4 mg/dL
Hb [8]: 15.8 g/dL
Ht [8]: 44.3%
Lym [8]: 77.8%
MCH [8]: 19.3 pg
MCHC [8]: 35.7%
MCV [8]: 54.1 fL
Mono [8]: 3.2%
Neu [8]: 17.4%
PT [8]: 13.6 s
Plat [8]: 111.9 x10_4/uL
RBC [8]: 819 x10_4/ul
Ret [8]: 2.6%
WBC [8]: 81.2 x10_2/uL
KIDNEY_L [6]: 1.2 g
KIDNEY_R [6]: 1.2 g
KIDNEY_TOTAL [6]: 2.4 g
KIDNEY_L [7]: 1.4 g
KIDNEY_R [7]: 1.4 g
KIDNEY_TOTAL [7]: 2.8 g
KIDNEY_L [8]: 1.8 g
KIDNEY_R [8]: 1.8 g
KIDNEY_TOTAL [8]: 3.7 g
LIVER [6]: 13.5 g
LIVER [7]: 15.3 g
LIVER [8]: 18.6 g
A/G [6]: 0.9
ALP [6]: 1693.8 IU/L
ALT [6]: 44.4 IU/L
AST [6]: 63.4 IU/L
BUN [6]: 13.8 mg/dL
CRE [6]: 0.2 mg/dL
Ca [6]: 10.9 mg/dL
Cl [6]: 105 meq/L
DBIL [6]: 0.028 mg/dL
GLC [6]: 182.4 mg/dL
IP [6]: 7.6 mg/dL
K [6]: 3.8 meq/L
LDH [6]: 89.4 IU/L
Na [6]: 143.4 meq/L
PL [6]: 117.2 mg/dL
RALB [6]: 2.9 g/dL
TBIL [6]: 0.03 mg/dL
TC [6]: 38.6 mg/dL
TG [6]: 228.8 mg/dL
TP [6]: 6.2 g/dL
gamma-GTP [6]: 1 IU/L
A/G [7]: 0.8
ALP [7]: 1180 IU/L
ALT [7]: 62 IU/L
AST [7]: 69.8 IU/L
BUN [7]: 13 mg/dL
CRE [7]: 0.2 mg/dL
Ca [7]: 10.4 mg/dL
Cl [7]: 105 meq/L
DBIL [7]: 0.022 mg/dL
GLC [7]: 172.6 mg/dL
IP [7]: 7.8 mg/dL
K [7]: 3.9 meq/L
LDH [7]: 128.8 IU/L
Na [7]: 143 meq/L
PL [7]: 139.2 mg/dL
RALB [7]: 2.8 g/dL
TBIL [7]: 0.03 mg/dL
TC [7]: 44 mg/dL
TG [7]: 191.2 mg/dL
TP [7]: 6.2 g/dL
gamma-GTP [7]: 1.8 IU/L
A/G [8]: 0.8
ALP [8]: 1072 IU/L
ALT [8]: 49.8 IU/L
AST [8]: 60.2 IU/L
BUN [8]: 12.4 mg/dL
CRE [8]: 0.2 mg/dL
Ca [8]: 10.9 mg/dL
Cl [8]: 101.6 meq/L
DBIL [8]: 0.026 mg/dL
GLC [8]: 172 mg/dL
IP [8]: 6.5 mg/dL
K [8]: 3.4 meq/L
LDH [8]: 100 IU/L
Na [8]: 144.2 meq/L
PL [8]: 118.6 mg/dL
RALB [8]: 2.9 g/dL
TBIL [8]: 0.032 mg/dL
TC [8]: 36.2 mg/dL
TG [8]: 202.2 mg/dL
TP [8]: 6.3 g/dL
gamma-GTP [8]: 2.6 IU/L
